Results from US20200333324A1, “METHOD OF PREDICTING CLINICAL OUTCOME OF ANTICANCER AGENTS” (MITRA RXDX, INC., priority 2017, published 2020).

Assays:
Assay type in all cases: cell-based, human
HNSCC tumor tissue [1] = test: Granzyme B and Perforin secretion assays, HNSCC tumor sections in tumor microenvironment platform; details: predicted non-responder, 48 hours
Method: FIGS. 9A and 9B show quantification of results for Granzyme B and Perforin secretion assays for HNSCC tumor tissue cultured in the tumor microenvironment platform treated with Pembrolizumab, Nivolumab, or IgG control for 24 or 48 hours.
HNSCC tumor sections from the same patient cultured for 24 or 48 hours in the tumor microenvironment platform with Pembrolizumab, Nivolumab, or IgG as control were assayed for Granzyme B and Perforin secretion. Results are shown in FIG. 9A for the tumor microenvironment platform with tumor tissue from a predicted responder and FIG. 9B for the tumor microenvironment platform with tumor tissue from a predicted non-responder. After treatment with Pembrolizumab for 48 hours, there was an increase in both Granzyme B and Perforin secretion in the tumor microenvironment platform with tissue from the predicted responder compared to treatment with the control IgG. By contrast, at 48 hours in the tumor microenvironment platform with tissue from the predicted non-responder there was no increase in Granzyme B or Perforin secretion for treatment with either Pembrolizumab or Nivolumab.

PBNCs = test: FACS analysis for CD25, CD127 and FOXP3 expression, PBNCs
Method: The effect of treatment with Nivolumab and Pembrolizumab on CD25, CD127, and FOXP3 expression was then evaluated. Tumor sections or PBNCs from the same patient cultured for 3 days in the tumor microenvironment platform were treated with Pembrolizumab, Nivolumab, or IgG control for one day followed by FACS analysis for expression of CD25, CD127, and FOXP3.

HNSCC tumor tissue [2] = test: IHC for CD8, PD-L1, PD-1 and FOXP3 positive cells in tumor microenvironment platform; details: T3
Method: (§1) The effect of Pembrolizumab and Nivolumab on CD8^+ T cell tumor infiltration was then evaluated. Tumor sections from the same patient cultured for 72 hours in the tumor microenvironment platform were treated with Pembrolizumab, Nivolumab, or IgG as control and stained for H&E, Ki67, Caspase 3, and CD8 at day 3 in culture (T3). Baseline staining was determined at TO. […] To further elucidate the effects of the anti-PD-1 antibodies, FACS analysis was performed on tumor tissue from patient 2941 and patient 2942 treated with either Pembrolizumab, Nivolumab, or IgG control. […] By contrast, there was no effect of either Pembrolizumab or Nivolumab on CD8^+ T cell infiltration for patient 2942, further highlighting the differential response between individuals to PD-1 blockade. CD8^+ T cell infiltration was evaluated in the tumor microenvironment platform with tumor tissue from the same patient, and comparisons for control vs Nivo, control vs Pembro, Nivo vs Pembro, and control vs Nivo vs Pembro for multiple patients are shown in FIG. 6 (each line represents results from the tumor microenvironment platform cultured with tumor tissue from a single individual).
The effect of Pembrolizumab and Nivolumab on the expression of immunoregulatory molecules, including PD-1 and FOXP3, in the tumor microenvironment platform tumor microbed was evaluated. Tumor sections from the same patient cultured for 3 days (72 hours) in the tumor microenvironment platform were treated with Pembrolizumab, Nivolumab, or IgG control and stained for CD8, FOXP3, and PD-1 at day 3 in culture (T3). Baseline staining was determined at TO. Results are shown in FIG. 7A for tumor sections from a predicted responder to Pembrolizumab or Nivolumab and FIG. 7B for a predicted non-responder to Pembrolizumab or Nivolumab, as characterized by M-score. There was in increase in the number of PD-1^+ cells in the tumor microbed for both Pembrolizumab and Nivolumab, which was to a greater degree in the case of Nivolumab, when compared to IgG control in the responder (FIG. 7A). There was no change for either Pembrolizumab and Nivolumab in the non-responder (FIG. 7B). The numbers of PD-L1^+ tumor cells, PD-1^+ T cells, FOXP3^+ T-regulatory cells, and CD8^+ T cells were evaluated using the tumor microenvironment platform with tumor tissue from the same patient in Nivolumab, Pembrolizumab, and control conditions, and are summarized in Table 3. Comparisons for control vs Nivo, control vs Pembro, Nivo vs Pembro, and control vs Nivo vs Pembro for multiple patients are shown in FIG. 8 (each line represents results from the tumor microenvironment platform cultured with tumor tissue from a single individual).

HNSCC tumor tissue [3] = test: FACS analysis for CD3 and CD8 (CD8+ T cell infiltration) in tumor microenvironment platform; details: vs IgG control
Method: as §1

Nivolumab
Granzyme B secretion (HNSCC tumor tissue [1]): no increase | Perforin secretion (HNSCC tumor tissue [1]): no increase | CD25^+/FOXP3^− PBMCs (% total cells) (PBNCs; Non-Responder, control 3.67): 1.40 % total cells | CD25^+/CD127^+ PBMCs (% total cells) (PBNCs; Non-Responder, control 14.6): 25.1 % total cells | CD25^+/CD127^− PBMCs (% total cells) (PBNCs; Non-Responder, control 15.1): 8.22 % total cells | CD25^−/FOXP3^− PBMCs (% total cells) (PBNCs; Non-Responder, control 18.2): 7.90 % total cells | CD25^+/FOXP3^+ PBMCs (% total cells) (PBNCs; Non-Responder, control 22.1): 29.0 % total cells | CD25^−/CD127^+ PBMCs (% total cells) (PBNCs; Non-Responder, control 26.2): 44.4 % total cells | CD25^−/CD127^− PBMCs (% total cells) (PBNCs; Non-Responder, control 44.1): 22.3 % total cells | CD25^− FOXP3^+ PBMCs (% total cells) (PBNCs; Non-Responder, control 56.0): 61.7 % total cells | CD25^+/FOXP3^− PBMCs (% total cells) (PBNCs; Responder, control 3.04): 8.91 % total cells | CD25^+/CD127^− PBMCs (% total cells) (PBNCs; Responder, control 11.7): 6.53 % total cells | CD25^+/CD127^+ PBMCs (% total cells) (PBNCs; Responder, control 16.8): 30.4 % total cells | CD25^+/FOXP3^+ PBMCs (% total cells) (PBNCs; Responder, control 21.7): 24.0 % total cells | CD25^−/FOXP3^− PBMCs (% total cells) (PBNCs; Responder, control 23.2): 29.8 % total cells | CD25^−/CD127^+ PBMCs (% total cells) (PBNCs; Responder, control 24.8): 44.2 % total cells | CD25^−/CD127^− PBMCs (% total cells) (PBNCs; Responder, control 46.6): 18.9 % total cells | CD25^− FOXP3^+ PBMCs (% total cells) (PBNCs; Responder, control 52.1): 37.3 % total cells | # cells/field PD-1^+ (HNSCC tumor tissue [2]; Patient ID 2916, control 0): 0 cells/field | # cells/field PD-L1^+ (HNSCC tumor tissue [2]; Patient ID 2916, control 1): 2 cells/field | # cells/field FOXP3^+ (HNSCC tumor tissue [2]; Patient ID 2916, control 3): 4 cells/field | # cells/field CD8^+ (HNSCC tumor tissue [2]; Patient ID 2916, control 20): 30 cells/field | # cells/field PD-1^+ (HNSCC tumor tissue [2]; Patient ID 2918, control 2): 0 cells/field | # cells/field FOXP3^+ (HNSCC tumor tissue [2]; Patient ID 2918, control 3): 2 cells/field | # cells/field CD8^+ (HNSCC tumor tissue [2]; Patient ID 2918, control 10): 3 cells/field | # cells/field PD-L1^+ (HNSCC tumor tissue [2]; Patient ID 2918, control 10): 20 cells/field | # cells/field PD-1^+ (HNSCC tumor tissue [2]; Patient ID 2926, control 0): 0 cells/field | # cells/field PD-L1^+ (HNSCC tumor tissue [2]; Patient ID 2926, control 3): 3 cells/field | # cells/field FOXP3^+ (HNSCC tumor tissue [2]; Patient ID 2926, control 4): 3 cells/field | # cells/field CD8^+ (HNSCC tumor tissue [2]; Patient ID 2926, control 25): 20 cells/field | # cells/field PD-1^+ (HNSCC tumor tissue [2]; Patient ID 2928, control 0): 0 cells/field | # cells/field PD-L1^+ (HNSCC tumor tissue [2]; Patient ID 2928, control 0): 3 cells/field | # cells/field CD8^+ (HNSCC tumor tissue [2]; Patient ID 2928, control 4): 15 cells/field | # cells/field FOXP3^+ (HNSCC tumor tissue [2]; Patient ID 2928, control 4): 5 cells/field | # cells/field CD8^+ (HNSCC tumor tissue [2]; Patient ID 2939, control 0): 2 cells/field | # cells/field PD-1^+ (HNSCC tumor tissue [2]; Patient ID 2939, control 0): 0 cells/field | # cells/field FOXP3^+ (HNSCC tumor tissue [2]; Patient ID 2939, control 1): 2 cells/field | # cells/field PD-L1^+ (HNSCC tumor tissue [2]; Patient ID 2939, control 10): 10 cells/field | # cells/field PD-1^+ (HNSCC tumor tissue [2]; Patient ID 2941, control 0): 2 cells/field | # cells/field FOXP3^+ (HNSCC tumor tissue [2]; Patient ID 2941, control 3): 2 cells/field | # cells/field PD-L1^+ (HNSCC tumor tissue [2]; Patient ID 2941, control 3): 5 cells/field | # cells/field CD8^+ (HNSCC tumor tissue [2]; Patient ID 2941, control 5): 3 cells/field | # cells/field PD-1^+ (HNSCC tumor tissue [2]; Patient ID 2942, control 0): 0 cells/field | # cells/field PD-L1^+ (HNSCC tumor tissue [2]; Patient ID 2942, control 0): 0 cells/field | # cells/field CD8^+ (HNSCC tumor tissue [2]; Patient ID 2942, control 3): 1 cells/field | # cells/field FOXP3^+ (HNSCC tumor tissue [2]; Patient ID 2942, control 3): 4 cells/field | # cells/field FOXP3^+ (HNSCC tumor tissue [2]; Patient ID 2948, control 1): 1 cells/field | # cells/field PD-1^+ (HNSCC tumor tissue [2]; Patient ID 2948, control 1): 0 cells/field | # cells/field PD-L1^+ (HNSCC tumor tissue [2]; Patient ID 2948, control 10): 1 cells/field | # cells/field CD8^+ (HNSCC tumor tissue [2]; Patient ID 2948, control 20): 20 cells/field | # cells/field PD-1^+ (HNSCC tumor tissue [2]; Patient ID 2949, control 1): 3 cells/field | # cells/field FOXP3^+ (HNSCC tumor tissue [2]; Patient ID 2949, control 5): 5 cells/field | # cells/field PD-L1^+ (HNSCC tumor tissue [2]; Patient ID 2949, control 20): 20 cells/field | # cells/field CD8^+ (HNSCC tumor tissue [2]; Patient ID 2949, control 50): 35 cells/field | # cells/field PD-1^+ (HNSCC tumor tissue [2]; Patient ID 2956, control 0): 0 cells/field | # cells/field CD8^+ (HNSCC tumor tissue [2]; Patient ID 2956, control 1): 7 cells/field | # cells/field PD-L1^+ (HNSCC tumor tissue [2]; Patient ID 2956, control 2): 3 cells/field | # cells/field FOXP3^+ (HNSCC tumor tissue [2]; Patient ID 2956, control 8): 10 cells/field | # cells/field PD-1^+ (HNSCC tumor tissue [2]; Patient ID 2963, control 0): 0 cells/field | # cells/field CD8^+ (HNSCC tumor tissue [2]; Patient ID 2963, control 6): 4 cells/field | # cells/field FOXP3^+ (HNSCC tumor tissue [2]; Patient ID 2963, control 10): 2 cells/field | # cells/field PD-L1^+ (HNSCC tumor tissue [2]; Patient ID 2963, control 12): 12 cells/field | # cells/field PD-1^+ (HNSCC tumor tissue [2]; Patient ID 2978, control 0): 0 cells/field | # cells/field FOXP3^+ (HNSCC tumor tissue [2]; Patient ID 2978, control 1): 1 cells/field | # cells/field PD-L1^+ (HNSCC tumor tissue [2]; Patient ID 2978, control 1): 1 cells/field | # cells/field CD8^+ (HNSCC tumor tissue [2]; Patient ID 2978, control 12): 17 cells/field | # cells/field PD-1^+ (HNSCC tumor tissue [2]; Patient ID 2979, control 0): 0 cells/field | # cells/field FOXP3^+ (HNSCC tumor tissue [2]; Patient ID 2979, control 2): 1 cells/field | # cells/field PD-L1^+ (HNSCC tumor tissue [2]; Patient ID 2979, control 5): 5 cells/field | # cells/field CD8^+ (HNSCC tumor tissue [2]; Patient ID 2979, control 25): 25 cells/field | # cells/field PD-1^+ (HNSCC tumor tissue [2]; Patient ID 2980, control 0): 0 cells/field | # cells/field FOXP3^+ (HNSCC tumor tissue [2]; Patient ID 2980, control 1): 1 cells/field | # cells/field PD-L1^+ (HNSCC tumor tissue [2]; Patient ID 2980, control 8): 1 cells/field | # cells/field CD8^+ (HNSCC tumor tissue [2]; Patient ID 2980, control 30): 10 cells/field | # cells/field FOXP3^+ (HNSCC tumor tissue [2]; Patient ID 2981, control 0): 1 cells/field | # cells/field PD-1^+ (HNSCC tumor tissue [2]; Patient ID 2981, control 0): 0 cells/field | # cells/field PD-L1^+ (HNSCC tumor tissue [2]; Patient ID 2981, control 0): 0 cells/field | # cells/field CD8^+ (HNSCC tumor tissue [2]; Patient ID 2981, control 1): 15 cells/field | CD8^+ T cell infiltration (IHC) (HNSCC tumor tissue [2]; patient 2941, vs IgG control): increased CD8^+ T cell infiltration | number of PD-1^+ cells in the tumor microbed (HNSCC tumor tissue [2]; predicted non-responder, vs IgG control): no change | number of PD-1^+ cells in the tumor microbed (HNSCC tumor tissue [2]; predicted responder, vs IgG control, to a greater degree in the case of Nivolumab): increase | CD8^+ T cell infiltration (FACS) (HNSCC tumor tissue [3]; patient 2941): increase | CD8^+ T cell infiltration (FACS) (HNSCC tumor tissue [3]; patient 2942): no effect
